Experimental data as given in patent publication US11384055B2 (BIOMARIN PHARMACEUTICAL INC., priority 2017, dated 2022).

Each molecule was assayed against T1, Human GO (Homo sapiens, UniProt Q9UJM8) (assay: GO enzymatic assay (coupled fluorescence/HRP assay, glycolate substrate)). Details: Table 2; read-out: Range (range of IC50 values calculated from the enzymatic assays).
T1 construct: purchased Novus Biologicals NBP1-72412
T1 sequence (Q9UJM8 1-370): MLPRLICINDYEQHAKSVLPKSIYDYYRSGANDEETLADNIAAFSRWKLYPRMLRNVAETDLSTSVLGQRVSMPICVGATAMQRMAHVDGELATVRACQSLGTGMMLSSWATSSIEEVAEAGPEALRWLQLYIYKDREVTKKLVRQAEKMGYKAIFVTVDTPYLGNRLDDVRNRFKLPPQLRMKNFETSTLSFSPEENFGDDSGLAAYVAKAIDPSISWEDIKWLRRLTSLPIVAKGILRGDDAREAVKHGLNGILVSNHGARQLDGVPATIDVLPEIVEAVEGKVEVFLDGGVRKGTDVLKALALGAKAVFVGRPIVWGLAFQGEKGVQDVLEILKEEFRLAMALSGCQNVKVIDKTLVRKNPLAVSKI
Type: biochemical
Procedure, shortened: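 Coupled HRP/fluorescence read-out of glycolate oxidation by human GO in 50 mM potassium phosphate buffer (pH 7). Inhibitors added across a concentration range.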

Compound	IC50
N#Cc1ccc(-c2ccc(Oc3nn[nH]c3C(=O)O)cc2)cc1 [Compound 225, 4-((4′-cyano-[1,1′-biphenyl]-4-yl)oxy)-1H-1,2,3-triazole-5-carboxylic acid]	< 0.1 µM
CC(C)N1CCc2ccc(Oc3nn[nH]c3C(=O)O)cc2C1 [Compound 226, 4-((2-isopropyl-1,2,3,4-tetrahydroisoquinolin-7-yl)oxy)-1H-1,2,3-triazole-5-carboxylic acid 2,2,2-trifluoroacetate]	1 to 10 µM
O=C(O)c1[nH]nnc1OCc1ccc2cc(Cl)ccc2c1 [Compound 227, 4-((6-chloronaphthalen-2-yl)methoxy)-1H-1,2,3-triazole-5-carboxylic acid 2,2,2-trifluoroacetate]	< 0.1 µM
O=C(O)c1[nH]nnc1Oc1ccc(-c2cccc(C3CCCCC3)c2)cc1 [Compound 228, 4-((3′-cyclohexyl-[1,1′-biphenyl]-4-yl)oxy)-1H-1,2,3-triazole-5-carboxylic acid]	< 0.1 µM
O=C(O)c1c(Oc2ccc(Cl)c(Cl)c2)nnn1COC(=O)C1CCCCC1 [Compound 229, 1-(((cyclohexanecarbonyl)oxy)methyl)-4-(3,4-dichlorophenoxy)1H-1,2,3-triazole-5-carboxylic acid]	0.1 to 1 µM
COCCOc1cccc(-c2ccc(Oc3nn[nH]c3C(=O)O)cc2)c1 [Compound 230, 4-((3′-(2-methoxyethoxy)-[1,1′-biphenyl]-4-yl)oxy)-1H-1,2,3-triazole-5-carboxylic acid]	< 0.1 µM
O=C(O)c1[nH]nnc1Oc1ccc2c(c1)OCCO2 [Compound 231, 4-((2,3-dihydrobenzo[b][1,4]dioxin-6-yl)oxy)-1H-1,2,3-triazole-5-carboxylic acid 2,2,2-trifluoroacetate]	< 0.1 µM
O=C(O)c1[nH]nnc1Oc1ccc(-c2cccc(OCC3CC3)c2)cc1 [Compound 232, 4-((3′-(cyclopropylmethoxy)-[1,1′-biphenyl]-4-yl)oxy)-1H-1,2,3-triazole-5-carboxylic acid]	< 0.1 µM
CC(=O)N1CCN(c2cccc(-c3ccc(Oc4nn[nH]c4C(=O)O)cc3)c2)CC1 [Compound 233, 4-((3′-(4-acetylpiperazin-1-yl)-[1,1′-biphenyl]-4-yl)oxy)-1H-1,2,3-triazole-5-carboxylic acid 2,2,2-trifluoroacetate]	< 0.1 µM
COCCOc1ccc(-c2ccc(Oc3nn[nH]c3C(=O)O)cc2)cc1 [Compound 234, 4-((4′-(2-methoxyethoxy)-[1,1′-biphenyl]-4-yl)oxy)-1H-1,2,3-triazole-5-carboxylic acid]	< 0.1 µM
CC(=O)OCOC(=O)c1[nH]nnc1Oc1ccc2cc(Cl)ccc2c1 [Compound 235, acetoxymethyl 4-((6-chloronaphthalen-2-yl)oxy)-1H-1,2,3-triazole-5-carboxylate]	< 0.1 µM
O=C(O)c1[nH]nnc1Oc1ccc2cc(OC(F)F)ccc2c1 [Compound 236, 4-((6-(difluoromethoxy)naphthalen-2-yl)oxy)-1H-1,2,3-triazole-5-carboxylic acid]	< 0.1 µM
O=C(O)c1[nH]nnc1OC1CCc2cc(F)c(F)cc2C1 (stereo not shown) [Compound 237, 4-((6,7-difluoro-1,2,3,4-tetrahydronaphthalen-2-yl)oxy)-1H-1,2,3-triazole-5-carboxylic acid]	< 0.1 µM
O=C(O)c1[nH]nnc1Oc1ccc(-c2cccc(C3CCOCC3)c2)cc1 [Compound 238, 4-((3′-(tetrahydro-2H-pyran-4-yl)-[1,1′-biphenyl]-4-yl)oxy)-1H-1,2,3-triazole-5-carboxylic acid 2,2,2-trifluoroacetate]	< 0.1 µM
CC(C)C(=O)OCOC(=O)c1[nH]nnc1Oc1ccc2cc(Cl)ccc2c1 [Compound 239, (isobutyryloxy)methyl 4-((6-chloronaphthalen-2-yl)oxy)-1H-1,2,3-triazole-5-carboxylate]	0.1 to 1 µM
CC(C)(C)OC(=O)N1CCCCC1C(=O)OCn1nnc(Oc2ccc(Cl)c(Cl)c2)c1C(=O)O (stereo not shown) [Compound 240, 1-(((1-(tert-butoxycarbonyl)piperidine-2-carbonyl)oxy)methyl)-4-(3,4-dichlorophenoxy)-1H-1,2,3-triazole-5-carboxylic acid]	1 to 10 µM
